Reference: PubChem BioAssay (NCI)
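Step 1: Grow cells in 96-well plates. Step 2: Expose to compound for 48 hours at 5 concentrations. Step 3: Interpolate endpoints linearly; if unreached, use highest concentration. At the GI50, growth is halved. TGI: total growth inhibition.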

Tests used:
Assay in all cases: NCI tumour cell line growth inhibition, 48 h
TK-10 renal = system: TK-10 renal
OVCAR-5 ovarian = system: OVCAR-5 ovarian
OVCAR-3 ovarian = system: OVCAR-3 ovarian
CAKI-1 renal = system: CAKI-1 renal
SK-OV-3 ovarian = system: SK-OV-3 ovarian
SW-620 colon = system: SW-620 colon
SNB-19 CNS = system: SNB-19 CNS
DU-145 prostate = system: DU-145 prostate
MCF7 breast = system: MCF7 breast
BT-549 breast = system: BT-549 breast

Compound | TGI (TK-10 renal) [µM] | TGI (OVCAR-5 ovarian) [µM] | TGI (OVCAR-3 ovarian) [µM] | TGI (CAKI-1 renal) [µM] | TGI (SK-OV-3 ovarian) [µM] | TGI (SW-620 colon) [µM] | TGI (SNB-19 CNS) [µM] | TGI (DU-145 prostate) [µM] | TGI (MCF7 breast) [µM] | TGI (BT-549 breast) [µM] | GI50 (TK-10 renal) [µM] | GI50 (SNB-19 CNS) [µM] | GI50 (OVCAR-5 ovarian) [µM] | GI50 (OVCAR-3 ovarian) [µM] | GI50 (DU-145 prostate) [µM] | GI50 (CAKI-1 renal) [µM] | GI50 (MCF7 breast) [µM] | GI50 (SK-OV-3 ovarian) [µM] | GI50 (SW-620 colon) [µM]
CCCCCCC(C)OC(=O)/C=C(\CC(=O)OC(C)CCCCCC)C(=O)OC(C)CCCCCC (stereo not given) | > 100 | > 100 | > 100 | > 100 | > 100 | > 100 |  |  |  |  |  |  |  |  |  |  |  |  | 
CSc1nc2c(=O)n(-c3ccccc3)c(=S)n(-c3ccccc3)c2s1 | > 100 | > 100 | > 100 |  | > 100 | > 100 | 64.7 | > 100 | > 100 |  |  |  |  |  |  |  |  |  | 
CCN(CC)CCCC(C)NC(=O)c1ccc2c(c1)C(=O)c1ccccc1C2=O (stereo not given) | 66.5 | 34.2 | 32.2 | 79.3 | > 93.6 | 43.1 | 55.3 |  |  |  |  |  |  |  |  |  |  |  | 
N#Cc1nc(CCC(c2nc(C#N)c(N)o2)N2C(=O)c3ccccc3C2=O)oc1N (stereo not given) | > 100 | > 100 | > 100 | > 100 | > 100 | > 100 | > 100 | > 100 | > 100 |  |  |  |  |  |  |  |  |  | 
CSCCC(NC(=O)OCc1ccccc1)NC(=O)OCc1ccccc1 | > 100 | > 100 | > 100 | > 100 | > 100 | > 100 | > 100 | > 100 |  |  |  |  |  |  |  |  |  |  | 
COc1ccc(-c2cc(-c3cc(F)c(Cl)cc3Cl)on2)cc1OC | > 100 | > 100 | > 100 | > 100 | > 100 | > 100 | > 100 | > 100 |  | > 100 |  |  |  |  |  |  |  |  | 
Oc1ccc(C#CCOc2ccccc2)cc1CNCCN(Cc1ccccn1)Cc1ccccn1 | 3.06 | 3.72 | 3.04 | 2.75 | 2.27 | 4.89 | 7.67 | 2.95 | 4.43 |  | 1.22 | 0.797 | 1.18 | 1.47 | 1.08 | 1.33 | 1.07 | 0.944 | 1.86
C#CC(O)/C=C/C(O)CCCC(O)CC#CC(O)C#CC(O)CCCC(O)/C=C/CCCC(=O)CCCCCCCCCCCCCCCC(O)C(O)C#CC(=O)O (stereo not given) | > 50 | > 50 |  | > 50 | > 50 |  | > 50 | > 50 | > 50 |  |  |  |  |  |  |  |  |  | 
O=c1c2ccccc2[nH]c2cc(O)cc(O)c12 | > 100 |  | > 100 |  | > 100 |  | > 100 |  |  |  |  |  |  |  |  |  |  |  | 
CC(NC(C#N)CC12CC3CC(CC(C3)C1)C2)c1ccccc1 (stereo not given) | > 100 | > 100 | 71.9 | > 100 | > 100 | > 100 | > 100 | > 100 | > 100 |  |  |  |  |  |  |  |  |  | 
NC1(C(=O)O)CCCC1 |  | > 625 | > 62.5 | > 625 | > 625 | > 625 | > 99.1 |  | > 625 |  |  |  |  |  |  |  |  |  | 
C[C@]1(O)O[C@@H]2OCC[C@@H]2C2=C1C(=O)c1ccccc1C2=O | 35.5 | 32.4 | 22.3 | 34.7 | 45.6 | 39.8 | 35.2 | 30.4 | 23.3 |  |  |  |  |  |  |  |  |  | 
C=C1C(=O)O[C@@H]2[C@H](O)[C@@H](C)[C@@H]3C=CC(=O)[C@@]3(C)[C@H](OC(=O)C=C(C)C)[C@H]12 |  | 4.67 | 2.15 | 1.74 | 7.91 | 1.18 | 17.2 |  | 1.81 |  |  |  |  |  |  |  |  |  | 
NC(=O)c1nnsc1NC=O |  | > 100 |  | > 100 | > 100 | > 100 | > 100 | > 100 | > 100 |  |  |  |  |  |  |  |  |  | 
O=C1c2ccccc2C(=O)c2c(O)ccc(O)c21 | > 100 | > 100 | 94.1 | > 100 | > 100 | > 100 | > 100 |  |  |  |  |  |  |  |  |  |  |  | 
O=[N+]([O-])c1c2nc3n(c2cc2c1nc1n2CCC1)CCC3 | > 100 | > 100 | > 100 | > 100 | > 100 | > 100 | > 100 | > 100 | > 100 |  |  |  |  |  |  |  |  |  | 
CS(=O)(=O)OCCCOS(C)(=O)=O | > 100 | > 100 | > 100 |  | > 100 | > 100 | > 100 |  |  |  |  |  |  |  |  |  |  |  | 
COc1ccccc1NC(=O)O/N=C(/Cl)C(C)C | 26.5 | 35.8 | 16.3 |  | 32.7 | 3.39 | > 56.4 | 33.2 |  | 21.6 |  |  |  |  |  |  |  |  | 
COc1cc(C2c3cc4c(cc3[C@@H](Nc3cccc([N+](=O)[O-])c3)C3COC(=O)[C@H]23)OCO4)cc(OC)c1O (stereo not given in full) |  | > 100 | 33.2 | 7.46 | 9.67 | > 65.4 | > 31.4 |  | > 100 |  |  |  |  |  |  |  |  |  | 
CC(Cc1ccccc1)NC1=NCCO1 (stereo not given) |  | > 100 |  | > 100 | > 100 | > 100 | > 100 |  | > 100 |  |  |  |  |  |  |  |  |  | 
NC(=O)CC(N=C1C(=O)OC(C(O)CO)C1=NC(CC(N)=O)C(=O)O)C(=O)O (stereo not given) | > 100 |  |  | > 100 | > 100 | > 100 | > 100 | > 100 | > 100 |  |  |  |  |  |  |  |  |  | 
